In ChEMBL document CHEMBL1201862, “PubChem BioAssay data set” (2004):
Active and inactive are the calls of the source. How the calls were made is not given here.

Tests used:
[1] = target: T1, High affinity choline transporter 1 (Homo sapiens, UniProt Q9GZV3); assay: human choline transporter blockers, potency – cell-based, 5-point CRC, membrane potential dye, dose response (AID 504840); type: functional
T1 sequence (Q9GZV3 whole entry): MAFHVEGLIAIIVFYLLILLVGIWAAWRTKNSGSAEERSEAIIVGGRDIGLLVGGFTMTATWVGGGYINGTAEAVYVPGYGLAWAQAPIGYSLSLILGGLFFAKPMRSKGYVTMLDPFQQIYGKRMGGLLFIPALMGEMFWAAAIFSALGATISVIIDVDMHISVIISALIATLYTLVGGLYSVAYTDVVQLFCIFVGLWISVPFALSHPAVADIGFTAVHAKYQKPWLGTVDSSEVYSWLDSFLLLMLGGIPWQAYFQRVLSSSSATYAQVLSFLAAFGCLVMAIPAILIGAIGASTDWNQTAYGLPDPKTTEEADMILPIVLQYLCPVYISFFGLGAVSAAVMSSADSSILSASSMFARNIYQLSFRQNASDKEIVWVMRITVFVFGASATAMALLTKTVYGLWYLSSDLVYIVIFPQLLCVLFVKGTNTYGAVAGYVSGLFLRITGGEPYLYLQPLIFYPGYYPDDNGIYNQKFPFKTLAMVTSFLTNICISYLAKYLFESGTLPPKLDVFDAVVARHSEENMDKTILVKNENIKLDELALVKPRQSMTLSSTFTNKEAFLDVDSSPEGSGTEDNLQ

[2] = viability of PTEN-deleted HCT116 cells – cell-based, HCT116 PTEN knockout, dose response (AID 1047); type: functional;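 further: HCT116 colon tumor cells with PTEN knocked out; cells exposed to compound for 60 hours before readout; potency for loss of cell viability measured by luminescence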

IC50 [1]	Structure (SMILES)	EC50 [2]
15.1 µM (active)	O=[N+]([O-])c1ccc(O)c(C2=NNC(c3ccccc3F)C2)c1 (configuration not stated)	–
–	Cc1oc2c(c1C(=O)N1CCC(C)CC1)C(=O)c1ccccc1C2=O	1.92 µM (active)
